Measurements reported in the NIST ThermoML archive (doi:10.1016/j.jct.2007.02.009).
Numbers after ± are expanded uncertainties.

Assay: Molar enthalpy of transition or fusion
Settings: Crystal; Adiabatic calorimetry

- Molar enthalpy of transition or fusion: 2.14 ± 0.0311 kcal/mol
Compound: CN(C)C=O [dimethylformamide]
